In PubChem BioAssay AID1919014 (Molecular Pharmacology Branch, DTP, NCI, 2023):

Tested on: NCI-H1341 complex spheroids, percent test/control
Assay: Anticancer human tumor NCI-H1341 cell line growth inhibition [AhR];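 note: spheroids exposed to agents for seven days before readout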
Conditions: for IC50: curve of first compound; for viability, T/C: stronger effect = lower value
Outline: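 Spheroids combined tumor cells with HUVEC endothelial cells and human MSCs as stroma. AhR antagonists were paired with standard or investigational drugs, each dosed in half-log steps down from near clinical Cmax, or from 10 microM where Cmax was unknown.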

[1] = second compound 0.1 µM, first compound 0.0316 µM
[2] = second compound 0.1 µM, first compound 0.1 µM
[3] = second compound 0.1 µM, first compound 0.316 µM
[4] = second compound 0.1 µM, first compound 1 µM
[5] = second compound 0.1 µM, first compound 3.16 µM
[6] = second compound 0.1 µM, first compound 10 µM
[7] = second compound 0.316 µM, first compound 0.0316 µM
[8] = second compound 0.316 µM, first compound 0.1 µM
[9] = second compound 0.316 µM, first compound 0.316 µM
[10] = second compound 0.316 µM, first compound 1 µM
[11] = second compound 0.316 µM, first compound 3.16 µM
[12] = second compound 0.316 µM, first compound 10 µM
[13] = second compound 1 µM, first compound 0.0316 µM
[14] = second compound 1 µM, first compound 0.1 µM
[15] = second compound 1 µM, first compound 0.316 µM
[16] = second compound 1 µM, first compound 1 µM
[17] = second compound 1 µM, first compound 3.16 µM
[18] = second compound 1 µM, first compound 10 µM
[19] = second compound 3.16 µM, first compound 0.0316 µM
[20] = second compound 3.16 µM, first compound 0.1 µM
[21] = second compound 3.16 µM, first compound 0.316 µM
[22] = second compound 3.16 µM, first compound 1 µM
[23] = second compound 3.16 µM, first compound 3.16 µM
[24] = second compound 3.16 µM, first compound 10 µM
[25] = second compound 10 µM, first compound 0.0316 µM
[26] = second compound 10 µM, first compound 0.1 µM
[27] = second compound 10 µM, first compound 0.316 µM
[28] = second compound 10 µM, first compound 1 µM
[29] = second compound 10 µM, first compound 3.16 µM
[30] = second compound 10 µM, first compound 10 µM
[31] = second compound 0.1 µM, first compound 0.00949 µM
[32] = second compound 0.1 µM, first compound 0.03 µM
[33] = second compound 0.1 µM, first compound 0.0949 µM
[34] = second compound 0.1 µM, first compound 0.3 µM
[35] = second compound 0.316 µM, first compound 0.00949 µM
[36] = second compound 0.316 µM, first compound 0.03 µM
[37] = second compound 0.316 µM, first compound 0.0949 µM
[38] = second compound 0.316 µM, first compound 0.3 µM
[39] = second compound 1 µM, first compound 0.00949 µM
[40] = second compound 1 µM, first compound 0.03 µM
[41] = second compound 1 µM, first compound 0.0949 µM
[42] = second compound 1 µM, first compound 0.3 µM
[43] = second compound 3.16 µM, first compound 0.00949 µM
[44] = second compound 3.16 µM, first compound 0.03 µM
[45] = second compound 3.16 µM, first compound 0.0949 µM
[46] = second compound 3.16 µM, first compound 0.3 µM
[47] = second compound 10 µM, first compound 0.00949 µM
[48] = second compound 10 µM, first compound 0.03 µM
[49] = second compound 10 µM, first compound 0.0949 µM
[50] = second compound 10 µM, first compound 0.3 µM

Compound `CC1(C)CCC(CN2CCN(c3ccc(C(=O)NS(=O)(=O)c4ccc(NCC5CCOCC5)c([N+](=O)[O-])c4)c(Oc4cnc5[nH]ccc5c4)c3)CC2)=C(c2ccc(Cl)cc2)C1` + Cc1ccccc1N=Nc1ccc(NC(=O)c2ccnn2C)c(C)c1 has an IC50 (second compound 0.1 µM) of 1970 nM, an IC50 (second compound 0.316 µM) of 2260 nM and an IC50 (second compound 1 µM) of 1990 nM. The IC50 (second compound 3.16 µM) was 539 nM, the IC50 (second compound 10 µM) was under 31.6 nM and the viability, T/C [1] was 96.5%. The viability, T/C [2] was 86%, the viability, T/C [3] was 96% and the viability, T/C [4] was 60.5%. For the same compound, the viability, T/C [5] was 41.3%, the viability, T/C [6] was 12.6% and the viability, T/C [7] was 100%. For the same compound, the viability, T/C [8] was 82.3%, the viability, T/C [9] was 94.2% and the viability, T/C [10] was 78.3%. For the same compound, the viability, T/C [11] was 38.1%, the viability, T/C [12] was 14.3% and the viability, T/C [13] was 80.3%. The viability, T/C [14] was 70.2%, the viability, T/C [15] was 84.2% and the viability, T/C [16] was 72.3%. The viability, T/C [17] was 34.6%, the viability, T/C [18] was 14.1% and the viability, T/C [19] was 80%. For the same compound, the viability, T/C [20] was 54.4%, the viability, T/C [21] was 61% and the viability, T/C [22] was 46.7%. The viability, T/C [23] was 30.1%, the viability, T/C [24] was 16.5% and the viability, T/C [25] was 44.2%. For the same compound, the viability, T/C [26] was 39.9%, the viability, T/C [27] was 44.5% and the viability, T/C [28] was 35.4%. The viability, T/C [29] was 22% and the viability, T/C [30] was 12.8%.
Compound `CC1COCCN1c1cc(C2(S(C)(=N)=O)CC2)nc(-c2ccnc3[nH]ccc23)n1` (stereo not given) + Cc1ccccc1N=Nc1ccc(NC(=O)c2ccnn2C)c(C)c1 has an IC50 (second compound 0.1 µM) of 1600 nM, an IC50 (second compound 0.316 µM) of 3530 nM and an IC50 (second compound 1 µM) of 3150 nM. For the same compound, the IC50 (second compound 3.16 µM) was 2110 nM, the IC50 (second compound 10 µM) was 721 nM and the viability, T/C [1] was 92.7%. For the same compound, the viability, T/C [2] was 92.3%, the viability, T/C [3] was 94.4% and the viability, T/C [4] was 57.6%. For the same compound, the viability, T/C [5] was 45.2%, the viability, T/C [6] was 30.3% and the viability, T/C [7] was 77.1%. It also gave a viability, T/C [8] of 108%, a viability, T/C [9] of 89% and a viability, T/C [10] of 81.2%. The viability, T/C [11] was 52.2%, the viability, T/C [12] was 31.1% and the viability, T/C [13] was 88.2%. The viability, T/C [14] was 114%, the viability, T/C [15] was 83.2% and the viability, T/C [16] was 84.3%. It also gave a viability, T/C [17] of 48.6%, a viability, T/C [18] of 29.4% and a viability, T/C [19] of 77.9%. The viability, T/C [20] was 90.2%, the viability, T/C [21] was 69.2% and the viability, T/C [22] was 63.4%. For the same compound, the viability, T/C [23] was 43.6%, the viability, T/C [24] was 26% and the viability, T/C [25] was 55.9%. The viability, T/C [26] was 57.5%, the viability, T/C [27] was 55.5% and the viability, T/C [28] was 47.6%. For the same compound, the viability, T/C [29] was 34.5% and the viability, T/C [30] was 25.4%.
For `CCN(c1cc(-c2ccc(CN3CCOCC3)cc2)cc(C(=O)NCc2c(C)cc(C)[nH]c2=O)c1C)C1CCOCC1` + Cc1ccccc1N=Nc1ccc(NC(=O)c2ccnn2C)c(C)c1, the IC50 (second compound 0.1 µM) was over 3000 nM, the IC50 (second compound 0.316 µM) was over 3000 nM and the IC50 (second compound 1 µM) was over 3000 nM. The IC50 (second compound 3.16 µM) was over 3000 nM, the IC50 (second compound 10 µM) was over 3000 nM and the viability, T/C [31] was 95.8%. The viability, T/C [32] was 85.1%, the viability, T/C [33] was 75.5% and the viability, T/C [34] was 104%. For the same compound, the viability, T/C (second compound 0.1 µM, first compound 0.949 µM) was 90.9%, the viability, T/C (second compound 0.1 µM, first compound 3 µM) was 107% and the viability, T/C [35] was 90.2%. It also gave a viability, T/C [36] of 103%, a viability, T/C [37] of 89.6% and a viability, T/C [38] of 87.1%. The viability, T/C (second compound 0.316 µM, first compound 0.949 µM) was 104%, the viability, T/C (second compound 0.316 µM, first compound 3 µM) was 73.1% and the viability, T/C [39] was 91.6%. It also gave a viability, T/C [40] of 102%, a viability, T/C [41] of 94.7% and a viability, T/C [42] of 90.6%. For the same compound, the viability, T/C (second compound 1 µM, first compound 0.949 µM) was 79.8%, the viability, T/C (second compound 1 µM, first compound 3 µM) was 100% and the viability, T/C [43] was 75.2%. It also gave a viability, T/C [44] of 75.1%, a viability, T/C [45] of 70.6% and a viability, T/C [46] of 71%. The viability, T/C (second compound 3.16 µM, first compound 0.949 µM) was 73.3%, the viability, T/C (second compound 3.16 µM, first compound 3 µM) was 60.6% and the viability, T/C [47] was 54.9%. It also gave a viability, T/C [48] of 45.6%, a viability, T/C [49] of 54.6% and a viability, T/C [50] of 52.2%. For the same compound, the viability, T/C (second compound 10 µM, first compound 0.949 µM) was 49.8% and the viability, T/C (second compound 10 µM, first compound 3 µM) was 66.5%.
For `Nc1ncn(C2CC(O)C(CO)S2)c(=O)n1` (stereo not given) + Cc1ccccc1N=Nc1ccc(NC(=O)c2ccnn2C)c(C)c1, the IC50 (second compound 0.1 µM) was 165 nM, the IC50 (second compound 0.316 µM) was 281 nM and the IC50 (second compound 1 µM) was 263 nM. For the same compound, the IC50 (second compound 3.16 µM) was 236 nM, the IC50 (second compound 10 µM) was 17.4 nM and the viability, T/C (second compound 0.1 µM, first compound 0.000949 µM) was 71.8%. It also gave a viability, T/C (second compound 0.1 µM, first compound 0.003 µM) of 84.3%, a viability, T/C [31] of 83.3% and a viability, T/C [32] of 65%. It also gave a viability, T/C [33] of 61.3%, a viability, T/C [34] of 40% and a viability, T/C (second compound 0.316 µM, first compound 0.000949 µM) of 78.8%. It also gave a viability, T/C (second compound 0.316 µM, first compound 0.003 µM) of 95%, a viability, T/C [35] of 93.2% and a viability, T/C [36] of 87.7%. For the same compound, the viability, T/C [37] was 78%, the viability, T/C [38] was 48.1% and the viability, T/C (second compound 1 µM, first compound 0.000949 µM) was 78.2%. The viability, T/C (second compound 1 µM, first compound 0.003 µM) was 85.8%, the viability, T/C [39] was 84.9% and the viability, T/C [40] was 81.3%. For the same compound, the viability, T/C [41] was 74.1%, the viability, T/C [42] was 46.8% and the viability, T/C (second compound 3.16 µM, first compound 0.000949 µM) was 88%. For the same compound, the viability, T/C (second compound 3.16 µM, first compound 0.003 µM) was 62.4%, the viability, T/C [43] was 66% and the viability, T/C [44] was 69.6%. For the same compound, the viability, T/C [45] was 62.6%, the viability, T/C [46] was 43.8% and the viability, T/C (second compound 10 µM, first compound 0.000949 µM) was 51.4%. The viability, T/C (second compound 10 µM, first compound 0.003 µM) was 54.6%, the viability, T/C [47] was 53% and the viability, T/C [48] was 45.8%. It also gave a viability, T/C [49] of 45.2% and a viability, T/C [50] of 34.9%.
